Reference: article PMC5384110 (European journal of medicinal chemistry, 2017)

Tests used:
Format in all cases: biochemical, HIV-1
[1] = molecular target: HIV integrase strand transfer (INST) (Human immunodeficiency virus type 1 group M subtype B, UniProt P04585); experiment: INST assay
HIV RT RNase H = HIV RT RNase H (Human immunodeficiency virus type 1 group M subtype B, UniProt P04585); experiment: RNase H assay; conditions: read-out: RT IC50 RNH; Table 2; 3-deoxy precursor 11; tested up to 10 μM
HIV RT pol = HIV RT pol (Human immunodeficiency virus type 1 group M subtype B, UniProt P04585); experiment: RT pol assay; conditions: Table 1; mean ± SD, at least two independent experiments
RT mutant Y181C = RT mutant Y181C (Human immunodeficiency virus type 1 group M subtype B, UniProt P04585, Y768C); experiment: RT pol assay against RT mutant Y181C
RT mutant K103N = RT mutant K103N (Human immunodeficiency virus type 1 group M subtype B, UniProt P04585, K690N); experiment: RT pol assay against RT mutant K103N

| SMILES | IC50 [1] [µM] | further results |
| --- | --- | --- |
| Cc1c(CC2CCCCC2)n(COCc2cccc(Cl)c2F)c(=O)n(O)c1=O [4j, 1-(((3-Chloro-2-fluorobenzyl)oxy)methyl)-6-(cyclohexylmethyl)-3-hydroxy-5-methylpyrimidine-2,4(1H,3H)-dione] | > 100 | – |
| Cc1c(CC2CCCCC2)n(COCc2ccccc2)c(=O)n(O)c1=O [4i, 1-((Benzyloxy)methyl)-6-(cyclohexylmethyl)-3-hydroxy-5-methylpyrimidine-2,4(1H,3H)-dione] | > 100 | – |
| CC(C)c1c(Cc2ccccc2)n(COCc2ccccc2)c(=O)[nH]c1=O [compound 14, TNK-651] | – | IC50 (HIV RT RNase H): > 10 µM |
| CCc1c(CC2CCCCC2)n(COCc2ccc(F)cc2)c(=O)n(O)c1=O [4d, 6-(Cyclohexylmethyl)-5-ethyl-1-(((4-fluorobenzyl)oxy)methyl)-3-hydroxypyrimidine-2,4(1H,3H)-dione] | > 100 | – |
| Cc1c(CC2CCCCC2)n(COCc2ccc(F)c(F)c2)c(=O)n(O)c1=O [4k, 6-(Cyclohexylmethyl)-1-(((3,4-difluorobenzyl)oxy)methyl)-3-hydroxy-5-methyl pyrimidine-2,4(1H,3H)-dione] | > 100 | – |
| CCc1c(CC2CCCCC2)n(COCc2ccc(F)c(F)c2)c(=O)n(O)c1=O [4f, 6-(Cyclohexylmethyl)-1-(((3,4-difluorobenzyl)oxy)methyl)-5-ethyl-3-hydroxypyrimidine-2,4(1H,3H)-dione] | > 100 | RT IC50 Pol (HIV RT pol): did not inhibit RT pol |
| CCc1c(CC2CCCCC2)n(COCc2ccc(C)cc2)c(=O)n(O)c1=O [4h, 6-(Cyclohexylmethyl)-5-ethyl-3-hydroxy-1-(((4-methylbenzyl)oxy)methyl) pyrimidine-2,4(1H,3H)-dione] | > 100 | – |
| Cc1c(CC2CCCCC2)n(COCCc2ccc(F)cc2)c(=O)n(O)c1=O [4m, 6-(Cyclohexylmethyl)-1-((4-fluorophenethoxy)methyl)-3-hydroxy-5-methyl pyrimidine-2,4(1H,3H)-dione] | > 100 | – |
| CCc1c(CC2CCCCC2)n(COCc2cccc(Cl)c2F)c(=O)n(O)c1=O [4e, 1-(((3-Chloro-2-fluorobenzyl)oxy)methyl)-6-(cyclohexylmethyl)-5-ethyl-3-hydroxypyrimidine-2,4(1H,3H)-dione] | > 100 | – |
| CC(C)c1c(CC2CCCCC2)n(COCc2ccc(F)cc2)c(=O)n(O)c1=O [4b, 6-(Cyclohexylmethyl)-1-(((4-fluorobenzyl)oxy)methyl)-3-hydroxy-5-isopropylpyrimidine-2,4(1H,3H)-dione] | > 100 | – |
| CCc1c(CC2CCCCC2)n(COCc2ccccc2)c(=O)n(O)c1=O [4c, 1-((Benzyloxy)methyl)-6-(cyclohexylmethyl)-5-ethyl-3-hydroxypyrimidine-2,4(1H,3H)-dione] | > 100 | – |
| CCc1c(CC2CCCCC2)n(COCc2ccc(C(F)(F)F)cc2)c(=O)n(O)c1=O [4g, 6-(Cyclohexylmethyl)-5-ethyl-3-hydroxy-1-(((4-(trifluoromethyl)benzyl)oxy)methyl)pyrimidine-2,4(1H,3H)-dione] | > 100 | – |
| Cc1c(CC2CCCCC2)n(COCc2ccc(C(F)(F)F)cc2)c(=O)n(O)c1=O [4l, 6-(Cyclohexylmethyl)-3-hydroxy-5-methyl-1-(((4-(trifluoromethyl)benzyl)oxy)methyl)pyrimidine-2,4(1H,3H)-dione] | > 100 | – |
| CC(C)c1c(CC2CCCCC2)n(COCc2ccccc2)c(=O)n(O)c1=O [4a, 1-((Benzyloxy)methyl)-6-(cyclohexylmethyl)-3-hydroxy-5-isopropylpyrimidine-2,4(1H,3H)-dione] | > 100 | IC50 (RT mutant Y181C): > 10 µM; IC50 (RT mutant K103N): > 10 µM |
